The text below walks through data of patent US20240174674A1, “NITROGEN-CONTAINING POLYCYCLIC FUSED RING COMPOUND, PHARMACEUTICAL COMPOSITION THEREOF, PREPARATION METHOD THEREFOR, AND USE THEREOF” (APPLIED PHARMACEUTICAL SCIENCE, INC., priority 2021, published 2024).

A value given as a limit tells only on which side of the number the result lay.

For one assay, the target named is RET-wt (Homo sapiens (Human), UniProt P07949). As to the kind of experiment: HTRF KinEASE-TK kinase activity test, RET-wt. The format is biochemical. As to conditions: for IC50: HTRF kinase assay; for inhibitory activity against RET-wt compared to that of cabozantinib: versus cabozantinib.
Sequence of RET-wt (P07949 29-1114): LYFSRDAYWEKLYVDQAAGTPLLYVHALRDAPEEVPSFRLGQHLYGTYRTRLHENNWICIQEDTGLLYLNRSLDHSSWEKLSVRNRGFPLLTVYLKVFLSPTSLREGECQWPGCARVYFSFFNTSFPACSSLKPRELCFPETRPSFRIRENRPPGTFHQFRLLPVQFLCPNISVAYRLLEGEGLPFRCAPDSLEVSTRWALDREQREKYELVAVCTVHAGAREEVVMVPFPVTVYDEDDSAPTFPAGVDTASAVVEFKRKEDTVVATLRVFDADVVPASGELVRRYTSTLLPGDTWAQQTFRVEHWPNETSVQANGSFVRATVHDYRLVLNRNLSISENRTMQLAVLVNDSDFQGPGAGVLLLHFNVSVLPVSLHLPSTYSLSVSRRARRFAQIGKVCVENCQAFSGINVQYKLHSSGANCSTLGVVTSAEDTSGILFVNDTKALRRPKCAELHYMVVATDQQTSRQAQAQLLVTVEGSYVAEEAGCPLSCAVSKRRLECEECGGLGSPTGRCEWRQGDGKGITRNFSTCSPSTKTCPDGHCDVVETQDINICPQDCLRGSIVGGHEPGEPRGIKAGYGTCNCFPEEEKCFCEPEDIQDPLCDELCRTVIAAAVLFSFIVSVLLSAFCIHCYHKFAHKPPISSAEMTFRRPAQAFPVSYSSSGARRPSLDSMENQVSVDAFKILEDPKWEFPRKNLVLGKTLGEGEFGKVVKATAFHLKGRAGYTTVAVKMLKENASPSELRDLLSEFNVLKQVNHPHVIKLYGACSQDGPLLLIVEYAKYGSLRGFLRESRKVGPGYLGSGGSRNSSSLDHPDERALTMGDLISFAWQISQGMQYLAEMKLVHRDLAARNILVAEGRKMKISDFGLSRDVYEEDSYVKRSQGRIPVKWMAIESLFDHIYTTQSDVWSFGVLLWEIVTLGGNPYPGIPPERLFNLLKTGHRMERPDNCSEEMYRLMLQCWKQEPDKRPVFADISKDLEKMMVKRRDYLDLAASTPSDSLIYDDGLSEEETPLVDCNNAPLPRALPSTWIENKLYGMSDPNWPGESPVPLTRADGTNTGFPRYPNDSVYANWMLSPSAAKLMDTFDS
Another assay deals with RET G810R (Homo sapiens (Human), UniProt P07949, G810R). Briefly: HTRF KinEASE-TK kinase activity test, RET G810R. As to conditions: for inhibitory activity against RET G810R relative to that of selpercatinib (LOXO-292): fold versus selpercatinib (LOXO-292); for IC50: read-out: RET G810R IC50, HTRF kinase assay.
Sequence of RET G810R (P07949 29-1114 G810R): as the sequence (P07949 29-1114) above, with G782R counted along it
A further assay addresses RET V804M (Homo sapiens (Human), UniProt P07949, V804M). Briefly: HTRF KinEASE-TK kinase activity test, RET V804M. As to conditions: for IC50: HTRF kinase assay; for inhibitory activity against RET V804M compared to that of cabozantinib: versus cabozantinib. The format is biochemical.

Sequence of RET V804M (P07949 29-1114 V804M): as the sequence (P07949 29-1114) above, with V776M counted along it

With `CCOc1cc(-c2ccc(N3CCC(C)(NC(=O)c4ncccc4Cl)CC3)nc2)c2c3cn[nH]c3nn2c1` [Compound 3, 3-chloro-N-(1-(5-(6-ethoxy-1H-pyrazolo[3′,4′:3,4]pyrazolo[1,5-α]pyridin-4-yl)pyridin-2-yl)-4-methylpiperidin-4-yl)-2-picolinamide], on RET-wt, the IC50 was 0.1 nM and the “inhibitory activity against RET-wt compared to that of cabozantinib” value is reported as “significantly superior”. Further, at RET G810R, the “inhibitory activity against RET G810R relative to that of selpercatinib (LOXO-292)” value was at least 10 times and the 50% inhibitory concentration (IC50) was 2.9 nM. For the same compound, on RET V804M, the IC50 came to 0.1 nM and the “inhibitory activity against RET V804M compared to that of cabozantinib” value is reported as “significantly superior”.

For the compound `CCOc1cc(-c2ccc(N3CCC(C)(NC(=O)c4ncc(F)cc4Cl)CC3)nc2)c2c3cn[nH]c3nn2c1` [Compound 4], at RET-wt, half-maximal inhibition (IC50) required 0.1 nM and the “inhibitory activity against RET-wt compared to that of cabozantinib” value is recorded as “significantly superior”. On RET G810R, the “inhibitory activity against RET G810R relative to that of selpercatinib (LOXO-292)” value is recorded as at least 10 times and the IC50 amounted to 2.3 nM. In addition, at RET V804M, half-maximal inhibition (IC50) was put at 0.03 nM and the “inhibitory activity against RET V804M compared to that of cabozantinib” value is “significantly superior”.

`CCOc1cc(-c2ccc(N3CCC(CO)(NC(=O)c4c(F)cccc4F)CC3)nc2)c2c3cn[nH]c3nn2c1` [Compound 11, N-(1-(5-(6-ethoxy-1H-pyrazolo[3′,4′:3,4]pyrazolo[1,5-α]pyridin-4-yl)pyridin-2-yl)-4-(hydroxymethyl)piperidin-4-yl)-2,6-difluorobenzamide]: at RET-wt, the IC50 turned out to be 0.1 nM and the “inhibitory activity against RET-wt compared to that of cabozantinib” value is reported as “significantly superior”. Besides, on RET G810R, the “inhibitory activity against RET G810R relative to that of selpercatinib (LOXO-292)” value is given as at least 10 times and the IC50 is 0.36 nM. For the same compound, at RET V804M, the IC50 stood at 0.1 nM and the “inhibitory activity against RET V804M compared to that of cabozantinib” value was “significantly superior”.

Turning to `CCOc1cc(-c2ccc(N3CC[C@H](NC(=O)CC(C)C)[C@@H](O)C3)nc2)c2c3cn[nH]c3nn2c1` [Compound 39], on RET-wt, the IC50 was found to be 0.1 nM and the “inhibitory activity against RET-wt compared to that of cabozantinib” value was “significantly superior”. The IC50 at RET G810R amounted to 4.2 nM. On RET V804M, half-maximal inhibition (IC50) required 0.1 nM and the “inhibitory activity against RET V804M compared to that of cabozantinib” value is “significantly superior”.

As to `CCOc1cc(-c2ccc(N3CC[C@H](NC(=O)C4(C(F)(F)F)CCC4)[C@@H](O)C3)nc2)c2c3cn[nH]c3nn2c1` [Compound 41], at RET-wt, the IC50 was 0.1 nM and the “inhibitory activity against RET-wt compared to that of cabozantinib” value is reported as “significantly superior”. Moreover, on RET G810R, the “inhibitory activity against RET G810R relative to that of selpercatinib (LOXO-292)” value is at least 10 times and the IC50 came out at 2.8 nM. In addition, on RET V804M, the IC50 was 0.1 nM and the “inhibitory activity against RET V804M compared to that of cabozantinib” value is recorded as “significantly superior”.

Take `CCOc1cc(-c2ccc(N3CC[C@H](NC(=O)c4ncccc4Cl)[C@H](O)C3)nc2)c2c3cn[nH]c3nn2c1` [Compound 42]: at RET-wt, the IC50 turned out to be 0.1 nM and the “inhibitory activity against RET-wt compared to that of cabozantinib” value was “significantly superior”. Further, on RET G810R, the “inhibitory activity against RET G810R relative to that of selpercatinib (LOXO-292)” value was at least 10 times and the IC50 stood at 1.4 nM. On RET V804M, half-maximal inhibition (IC50) required 0.05 nM and the “inhibitory activity against RET V804M compared to that of cabozantinib” value is “significantly superior”.

With `CCOc1cc(-c2ccc(N3CC[C@H](NC(=O)c4c(F)cccc4Cl)[C@@H](O)C3)nc2)c2c3cn[nH]c3nn2c1` [Compound 44, 2-chloro-N-((3S,4S)-1-(5-(6-ethoxy-1H-pyrazolo[3′,4′:3,4]pyrazolo[1,5-α]pyridin-4-yl)pyridin-2-yl)-3-hydroxypiperidin-4-yl)-6-fluorobenzamide], on RET-wt, half-maximal inhibition (IC50) required 0.1 nM and the “inhibitory activity against RET-wt compared to that of cabozantinib” value is “significantly superior”. Further, on RET G810R, the “inhibitory activity against RET G810R relative to that of selpercatinib (LOXO-292)” value is reported as at least 10 times and the IC50 was determined as 0.8 nM. Moreover, at RET V804M, the IC50 was determined as 0.1 nM and the “inhibitory activity against RET V804M compared to that of cabozantinib” value is recorded as “significantly superior”.

Turning to `CCOc1cc(-c2ccc(N3CC[C@H](NC(=O)c4cc(F)ccc4C)[C@@H](O)C3)nc2)c2c3cn[nH]c3nn2c1` [Compound 46], at RET-wt, half-maximal inhibition (IC50) was put at 0.1 nM and the “inhibitory activity against RET-wt compared to that of cabozantinib” value is given as “significantly superior”. In addition, on RET G810R, the “inhibitory activity against RET G810R relative to that of selpercatinib (LOXO-292)” value is given as at least 10 times and the 50% inhibitory concentration (IC50) came out at 1.6 nM. Further, at RET V804M, the IC50 is 0.06 nM and the “inhibitory activity against RET V804M compared to that of cabozantinib” value is on record as “significantly superior”.

Turning to `CCOc1cc(-c2ccc(N3CC[C@H](NC(=O)OC(C)(C)C)[C@@H](O)C3)nc2)c2c3cn[nH]c3nn2c1` [Compound 88, Tert-butyl ((3S,4S)-1-(5-(6-ethoxy-1H-pyrazolo[3′,4′:3,4]pyrazolo[1,5-α]pyridin-4-yl)pyridin-2-yl)-3-hydroxypiperidin-4-yl)carbamate], at RET-wt, 0.1 nM corresponded to half-maximal inhibition (IC50) and the “inhibitory activity against RET-wt compared to that of cabozantinib” value is given as “significantly superior”. In addition, the IC50 at RET G810R was 7.8 nM. Further, on RET V804M, half-maximal inhibition (IC50) required 0.2 nM and the “inhibitory activity against RET V804M compared to that of cabozantinib” value is listed as “significantly superior”.
